According to patent US9499550B2 (BRISTOL-MYERS SQUIBB COMPANY, priority 2012, dated 2016):
Read-outs that look alike come from different tables or passages of the source.

What was measured:
[1] = test system: HCV genotype 1a (H77 strain) replicon in HUH-7 cells; assay: HCV replicon luciferase reporter assay, genotype 1a; format: cell-based; details: Hepatitis C virus, Huh-7, 72 h, 3 days incubation
Outline: (§1)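 Replicon inhibition for both genotypes was measured as Renilla luciferase signal (EnduRen, 7.5 μM final, 2 h) after 3-day, 37° C exposure of replicon-bearing HUH-7 cells in 4% FCS DMEM, 0.5% DMSO. The 1b construct carries S1179I; the 1a H77 construct carries P1496L and S2204I. Twenty-point, 3-fold dilutions were fitted four-parametrically for EC50, and CC50 was taken from multiplexed Cell Titer-Blue.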

[2] = test system: HCV genotype 1b (Con1) replicon in HUH-7 cells; assay: HCV replicon luciferase reporter assay, genotype 1b; format: cell-based; details: Hepatitis C virus, Huh-7, 72 h, 3 days incubation
Outline: as §1

[3] = HCV genotype 1a replicon luciferase, read-out: LE_1a (EC50, range)
[4] = HCV genotype 1b replicon luciferase, read-out: LE_1b (EC50, range)
[5] = GETYPE1A, HCV genotype 1a replicon luciferase, read-out: LE_1a (EC50, range)
[6] = GETYPE1B, HCV genotype 1b replicon luciferase, read-out: LE_1b (EC50, range)
[7] = HCV genotype 1a replicon luciferase assay, range class, read-out: LE_1a (EC50, range)
[8] = HCV genotype 1b replicon luciferase assay, range class, read-out: LE_1b (EC50, range)

Structure (SMILES)	EC50 [1, 3] [nM]	EC50 [2, 4] [nM]	also measured
CC[C@@H]1C[C@H](C)CC/C=C\[C@@H]2C[C@@]2(C(=O)NS(=O)(=O)C2(C)CC2)NC(=O)[C@@H]2C[C@@H](Oc3cc4nc(OC)c(C(F)(F)F)nc4cc3OC)CN2C(=O)[C@H]1NC(=O)OC(C)(C)C [Compound 4365, tert-butyl ((2R,6S,7R,9R,13aS,14aR,16aS,Z)-2-((3,7-dimethoxy-2-(trifluoromethyl)quinoxalin-6-yl)oxy)-7-ethyl-9-methyl-14a-(((1-methylcyclopropyl)sulfonyl)carbamoyl)-5,16-dioxo-1,2,3,5,6,7,8,9,10,11,13a,14,14a,15,16,16a-hexadecahydrocyclopropa[e]pyrrolo[1,2-a][1,4]diazacyclopentadecin-6-yl)carbamate]	5.01 to 35	5.01 to 35	
CCC1(S(=O)(=O)NC(=O)[C@@]23C[C@H]2/C=C\CC[C@@H](C)C[C@@H](C)[C@H](NC(=O)OC(C)(C)C(F)(F)F)C(=O)N2C[C@H](Oc4nccc5cc(OC)c(F)cc45)C[C@H]2C(=O)N3)CC1 [Compound 4127]			EC50 [1, 5]: 4.82 to 103 nM; EC50 [2, 6]: < 5.46 nM
CC[C@@H]1C[C@H](C)CC/C=C\[C@@H]2C[C@@]2(C(=O)NS(=O)(=O)C2(C)CC2)NC(=O)[C@@H]2C[C@@H](Oc3ncc(OC)c4ccc(F)cc34)CN2C(=O)[C@H]1NC(=O)c1ccn(C)n1 [Compound 4356, (2R,6S,7R,9R,13aS,14aR,16aS,Z)-7-ethyl-2-((7-fluoro-4-methoxyisoquinolin-1-yl)oxy)-9-methyl-6-(1-methyl-1H-pyrazole-3-carboxamido)-N-((1-methylcyclopropyl)sulfonyl)-5,16-dioxo-1,2,3,5,6,7,8,9,10,11,13a,14,14a,15,16,16a-hexadecahydrocyclopropa[e]pyrrolo[1,2-a][1,4]diazacyclopentadecine-14a-carboxamide]	0.51 to 1	0.1 to 0.5	
C[C@@H]1CC/C=C\[C@@H]2C[C@@]2(C(=O)NS(=O)(=O)C2CC2)NC(=O)[C@@H]2C[C@@H](Oc3nccc4c5c(ccc34)OCCO5)CN2C(=O)[C@@H](NC(=O)OC(C)(C)C(F)(F)F)[C@H](C)C1 [Compound 5259, 1,1,1-trifluoro-2-methylpropan-2-yl((2R,6S,7R,9R,13aS,14aR,16aS,Z)-14a-((cyclopropylsulfonyl)carbamoyl)-2-((2,3-dihydro-[1,4]dioxino[2,3-f]isoquinolin-7-yl)oxy)-7,9-dimethyl-5,16-dioxo-1,2,3,5,6,7,8,9,10,11,13a,14,14a,15,16,16a-hexadecahydrocyclopropa[e]pyrrolo[1,2-a][1,4]diazacyclopentadecin-6-yl)carbamate]	< 5.46	< 5.46	
COc1cc2ccnc(O[C@@H]3C[C@H]4C(=O)N[C@]5(C(=O)NS(=O)(=O)C6(CF)CC6)C[C@H]5/C=C\CC[C@H](C)C[C@@H](C)[C@H](NC(=O)OC5(C(F)(F)F)CCCCO5)C(=O)N4C3)c2cc1F (stereo partly shown) [Compound 1191]			EC50 [1, 5]: 5.01 to 35 nM; EC50 [2, 6]: 5.01 to 35 nM
[2H]C([2H])([2H])Oc1cnc(O[C@@H]2C[C@H]3C(=O)N[C@]4(C(=O)NS(=O)(=O)C5(C)CC5)C[C@H]4/C=C\CC[C@H](C)C[C@@H](C)[C@H](NC(=O)NC(C)(C)C)C(=O)N3C2)c2ccccc12 [Compound 5106, (2R,6S,7R,9S,13aS,14aR,16aS,Z)-6-(3-(tert-butyl)ureido)-7,9-dimethyl-N-((1-methylcyclopropyl)sulfonyl)-5,16-dioxo-2-((4-(trideuteromethoxy)isoquinolin-1-yl)oxy)-1,2,3,5,6,7,8,9,10,11,13a,14,14a,15,16,16a-hexadecahydrocyclopropa[e]pyrrolo[1,2-a][1,4]diazacyclopentadecine-14a-carboxamide]	< 5.46	< 5.46	
COc1ccc2c(O[C@@H]3C[C@H]4C(=O)N[C@]5(C(=O)NS(=O)(=O)C6(C)CC6)C[C@H]5/C=C\CC[C@H](C)C[C@@H](C)[C@H](NC(=O)OC(C)(C)C(C)(F)F)C(=O)N4C3)nc(-c3ccc4c(c3)OCCO4)cc2c1 [Compound 5236, 3,3-difluoro-2-methylbutan-2-yl((2R,6S,7R,9S,13aS,14aR,16aS,Z)-2-((3-(2,3-dihydrobenzo[b][1,4]dioxin-6-yl)-6-methoxyisoquinolin-1-yl)oxy)-7,9-dimethyl-14a-(((1-methylcyclopropyl)sulfonyl)carbamoyl)-5,16-dioxo-1,2,3,5,6,7,8,9,10,11,13a,14,14a,15,16,16a-hexadecahydrocyclopropa[e]pyrrolo[1,2-a][1,4]diazacyclopentadecin-6-yl)carbamate]	< 5.46	< 5.46	
CCOc1cnc(O[C@@H]2C[C@H]3C(=O)N[C@]4(C(=O)NS(=O)(=O)C5(C)CC5)C[C@H]4/C=C\CC[C@@H](C)C[C@@H](C)[C@H](NC(=O)Oc4ccc(F)cc4F)C(=O)N3C2)c2ccccc12 [Compound 4138, 2,4-difluorophenyl (2R,6S,7R,9R,13aS,14aR,16aS,Z)-2-(4-ethoxyisoquinolin-1-yloxy)-7,9-dimethyl-14a-(1-methylcyclopropylsulfonylcarbamoyl)-5,16-dioxo-1,2,3,5,6,7,8,9,10,11,13a,14,14a,15,16,16a-hexadecahydrocyclopropa[e]pyrrolo[1,2-a][1,4]diazacyclopentadecin-6-ylcarbamate]	4.82 to 103	4.82 to 103	
COc1ccc2c(O[C@@H]3C[C@H]4C(=O)N[C@]5(C(=O)NS(=O)(=O)C6(C)CC6)C[C@H]5/C=C\CC[C@@H](C)C[C@@H](C)[C@H](NC(=O)OC(C)(C)C(F)(F)F)C(=O)N4C3)nc(OC(C)C)cc2c1 [Compound 3202, 1,1,1-trifluoro-2-methylpropan-2-yl((2R,6S,7R,9R,13aS,14aR,16aS,Z)-2-((3-isopropoxy-6-methoxyisoquinolin-1-yl)oxy)-7,9-dimethyl-14a-(((1-methylcyclopropyl)sulfonyl)carbamoyl)-5,16-dioxo-1,2,3,5,6,7,8,9,10,11,13a,14,14a,15,16,16a-hexadecahydrocyclopropa[e]pyrrolo[1,2-a][1,4]diazacyclopentadecin-6-yl)carbamate]	1.01 to 5	1.01 to 5	
COc1cc2nc(C(F)(F)F)c(OC)nc2cc1O[C@@H]1C[C@H]2C(=O)N[C@]3(C(=O)NS(=O)(=O)C4(C)CC4)C[C@H]3/C=C\CC[C@@H](C)C[C@@H](C)[C@H](NC(=O)OC(C)(C)C)C(=O)N2C1 [Compound 4351, tert-butyl ((2R,6S,7R,9R,13aS,14aR,16aS,Z)-2-((3,7-dimethoxy-2-(trifluoromethyl)quinoxalin-6-yl)oxy)-7,9-dimethyl-14a-(((1-methylcyclopropyl)sulfonyl)carbamoyl)-5,16-dioxo-1,2,3,5,6,7,8,9,10,11,13a,14,14a,15,16,16a-hexadecahydrocyclopropa[e]pyrrolo[1,2-a][1,4]diazacyclopentadecin-6-yl)carbamate]	5.01 to 35	1.01 to 5	
[2H]C([2H])([2H])C(OC(=O)N[C@@H]1C(=O)N2C[C@H](Oc3nn(CC)c(=O)c4ccccc34)C[C@H]2C(=O)N[C@]2(C(=O)NS(=O)(=O)C3CC3)C[C@H]2/C=C\CC[C@@H](C)C[C@H]1C)(C([2H])([2H])[2H])C(F)(F)F [Compound 5069]	4.82 to 103	4.82 to 103	EC50 ([1]; HCV genotype 1a replicon luciferase, read-out: LE_1a (EC50)): 14.9 nM; EC50 ([2]; HCV genotype 1b replicon luciferase, read-out: LE_1b (EC50)): 7.21 nM
CC(C)Oc1cc2c(Cl)cccc2c(O[C@@H]2C[C@H]3C(=O)N[C@]4(C(=O)NS(=O)(=O)C5CC5)C[C@H]4/C=C\CC[C@@H](C)C[C@@H](C)[C@H](NC(=O)OC(C)(C)C(C)(F)F)C(=O)N3C2)n1 [Compound 1106, 3,3-difluoro-2-methylbutan-2-yl((2R,6S,7R,9R,13aS,14aR,16aS,Z)-2-((5-chloro-3-isopropoxyisoquinolin-1-yl)oxy)-14a-((cyclopropylsulfonyl)carbamoyl)-7,9-dimethyl-5,16-dioxo-1,2,3,5,6,7,8,9,10,11,13a,14,14a,15,16,16a-hexadecahydrocyclopropa[e]pyrrolo[1,2-a][1,4]diazacyclopentadecin-6-yl)carbamate]			EC50 [1, 7]: < 5.46 nM; EC50 [2, 8]: < 5.46 nM
COCCOc1cnc(O[C@@H]2C[C@H]3C(=O)N[C@]4(C(=O)NS(=O)(=O)C5(C)CC5)C[C@H]4/C=C\CC[C@@H](C)C[C@@H](C)[C@H](NC(=O)OC(C)(C)C(C)(F)F)C(=O)N3C2)c2ccc(OC)cc12 [Compound 1149, 3,3-difluoro-2-methylbutan-2-yl((2R,6S,7R,9R,13aS,14aR,16aS,Z)-2-((6-methoxy-4-(2-methoxyethoxyl)isoquinolin-1-yl)oxy)-7,9-dimethyl-14a-(((1-methylcyclopropyl)sulfonyl)carbamoyl)-5,16-dioxo-1,2,3,5,6,7,8,9,10,11,13a,14,14a,15,16,16a-hexadecahydrocyclopropa[e]pyrrolo[1,2-a][1,4]diazacyclopentadecin-6-yl)carbamate]			EC50 [1, 7]: < 5.46 nM; EC50 [2, 8]: < 5.46 nM
